Laboratory results as given in the supplement of paper PMC10307832.

Tests used:
Test in all cases: relative viability (nuclei count vs DMSO), 5 days (fraction); higher = more cells survive
[1] = compound: CC(C)=CC[C@@H](O)C1=CC(=O)c2c(O)ccc(O)c2C1=O [Shikonin] + N=C(N)NC(=N)NCCc1ccccc1 [Phenformin] (partner 250 µM)
Outline: (§1)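 Each reported value is a median over duplicate plates. It expresses relative viability: treated-well nuclei count divided by vehicle-well nuclei count. Lung cancer cell lines in 1536-well plates were dosed by pin tool a day after seeding, alone with one drug or with a fixed anchor-drug dose plus five library-drug doses (not always all listed) in √10 steps, and nuclei were counted after 5 days.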

[2] = compound: CC(C)=CC[C@@H](O)C1=CC(=O)c2c(O)ccc(O)c2C1=O [Shikonin] + CC(=O)Nc1cccc(-n2c(=O)n(C3CC3)c(=O)c3c(Nc4ccc(I)cc4F)n(C)c(=O)c(C)c32)c1 [Trametinib] (partner 0.02 µM)
Outline: as §1

[3] = compound: CC(C)=CC[C@@H](O)C1=CC(=O)c2c(O)ccc(O)c2C1=O [Shikonin] + Nc1ncn([C@H]2C[C@H](O)[C@@H](CO)O2)c(=O)n1 [Decitabine] (partner 2 µM)
Outline: as §1

[4] = compound: CC(C)N(CCCNC(=O)Nc1ccc(C(C)(C)C)cc1)C[C@H]1O[C@@H](n2ccc3c(N)ncnc32)[C@H](O)[C@@H]1O + CC1(C)CCC(c2ccc(Cl)cc2)=C(CN2CCN(c3ccc(C(=O)NS(=O)(=O)c4ccc(N[C@H](CCN5CCOCC5)CSc5ccccc5)c(S(=O)(=O)C(F)(F)F)c4)cc3)CC2)C1 [Navitoclax] (partner 0.5 µM)
Outline: as §1

Cell Line	relative viability ([1]; first compound 0.01 µM)	relative viability ([1]; first compound 0.1 µM)	relative viability ([1]; first compound 0.3162 µM)	relative viability ([1]; first compound 1 µM)	relative viability ([2]; first compound 0.01 µM)	relative viability ([2]; first compound 0.1 µM)	relative viability ([2]; first compound 0.3162 µM)	relative viability ([2]; first compound 1 µM)	relative viability ([3]; first compound 0.01 µM)	relative viability ([3]; first compound 0.1 µM)	relative viability ([3]; first compound 0.3162 µM)	relative viability ([3]; first compound 1 µM)	relative viability ([4]; first compound 0.08 µM)	relative viability ([4]; first compound 0.253 µM)	relative viability ([4]; first compound 0.8 µM)	relative viability ([4]; first compound 2.53 µM)	relative viability ([4]; first compound 8 µM)
NCI-H2342	0.679	0.538	0.653	0.587	0.902	0.686	0.88	0.843	0.723	0.72	0.74	0.748	–	–	–	–	–
HCC-15	0.511	0.545	0.49	0.456	0.389	0.35	0.414	0.418	0.575	0.848	0.638	0.792	0.653	0.717	0.733	0.707	0.673
A-427	0.327	0.418	0.316	0.398	0.776	0.816	0.821	0.779	0.575	0.578	0.579	0.61	0.917	0.941	0.875	0.969	0.925
NCI-H23	0.864	0.812	0.849	0.717	0.356	0.395	0.472	0.42	0.335	0.306	0.333	0.277	0.771	–	0.698	0.822	0.75
NCI-H1734	0.414	0.432	0.34	0.425	0.664	0.771	0.747	0.732	0.475	0.566	0.571	0.474	0.784	0.86	0.71	0.856	0.752
NCI-H520	0.504	0.809	0.567	0.6	0.685	0.631	0.677	0.679	0.47	0.598	0.454	0.401	1.04	1.15	1.1	1.05	0.929
RERF-LC-KJ	0.374	0.433	0.505	0.36	0.97	0.728	0.991	0.743	0.782	0.703	0.636	0.653	0.717	1.06	1.03	0.931	0.822
NCI-H1915	0.383	0.396	0.368	0.395	0.308	0.31	0.309	0.298	0.271	0.286	0.268	0.258	0.782	0.778	0.781	0.768	0.697
NCI-H1666	0.558	0.605	0.552	0.548	0.896	0.855	1.02	0.772	0.668	0.779	0.82	0.734	0.946	0.912	1.03	0.934	0.953
HCC-366	0.62	0.644	0.663	0.597	0.359	0.363	0.336	0.451	0.34	0.381	0.37	0.367	1.08	1.05	0.928	0.898	0.942
SK-MES-1	0.747	0.677	0.72	0.638	0.595	0.57	0.575	0.71	0.323	0.417	0.371	0.426	1.12	1.26	1.28	1.18	1.19
NCI-H1993	0.504	0.579	0.555	0.499	0.526	0.516	0.563	0.568	0.668	0.592	0.632	0.555	0.944	1.03	0.872	0.807	0.959
NCI-H838	0.547	0.722	0.608	0.578	0.619	0.505	0.551	0.564	0.476	0.413	0.442	0.468	1.12	1.1	1.2	1.15	1.14
SK-LU-1	0.522	0.648	0.596	0.524	0.46	0.485	0.513	0.449	0.631	0.688	0.59	0.635	0.688	0.762	0.86	1.06	0.557
NCI-H1623	0.551	0.601	0.592	0.603	–	–	–	–	–	–	–	–	–	–	–	–	–
Calu-6	–	–	–	–	–	–	–	–	–	–	–	–	0.887	0.87	0.848	0.902	0.841
LC-2-ad	0.553	0.643	0.592	0.667	0.962	1.02	1.02	0.945	0.75	0.849	0.874	0.89	0.612	0.409	0.435	0.458	0.462
